The assay addresses unphosphorylated-BTK kinase domain (UP-BTK), GST-tagged human BTK (389-659aa) (Homo sapiens (Human), UniProt Q06187). Put plainly: BTK kinase Lanthascreen binding assay. Conditions: unphosphorylated-BTK kinase domain, 50 nM Tracer 236, 60 minutes; pIC50 = negative log of the IC50 in molar. As to the method:
BTK Kinase Lanthascreen Binding Assay:
A BTK kinase lanthascreen binding assay monitors compound binding to unphosphorylated-BTK kinase domain (UP-BTK), by competing with a fluorescent labeled tracer. […] Data were analyzed using Xlfit™ version 5.3 from ID Business Solutions (Guildford), Microsoft Excel add-in. pIC50 refers to the negative log of the IC50 in molar
In general terms: Time-resolved FRET reads energy transfer from a long-lived donor to a nearby acceptor.

22 compounds from patent US10800792B2, “Inhibitors of Bruton's tyrosine kinase and method of their use” (JANSSEN PHARMACEUTICA NV, priority 2015, dated 2020) can be followed below.

Chain of unphosphorylated-BTK kinase domain (UP-BTK), GST-tagged human BTK (389-659aa) (Q06187 389-659): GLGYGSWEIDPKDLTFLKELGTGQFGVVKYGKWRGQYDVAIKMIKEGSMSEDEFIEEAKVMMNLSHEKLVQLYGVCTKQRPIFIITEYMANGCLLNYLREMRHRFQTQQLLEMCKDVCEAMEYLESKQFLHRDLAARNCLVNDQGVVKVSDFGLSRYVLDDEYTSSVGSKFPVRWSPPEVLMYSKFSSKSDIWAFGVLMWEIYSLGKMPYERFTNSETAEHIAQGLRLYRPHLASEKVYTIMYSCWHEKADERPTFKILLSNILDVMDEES

On to `Cc1cc(Oc2ccccc2)ccc1N1C(=O)Nc2c(C(=O)N[C@@H]3CCCN(C(=O)/C(C#N)=C/C4(C)COC4)C3)sc3nccc1c23` (single isomer, unassigned) [Example 387, (R,E)-N-(1-(2-Cyano-3-(3-methyloxetan-3-yl)acryloyl)piperidin-3-yl)-5-(*R)-(2-methyl-4-phenoxyphenyl)-4-oxo-4,5-dihydro-3H-1-thia-3,5,8-triazaacenaphthylene-2-carboxamide], for which the “BTK_I_binding pIC50” value was found to be 7.8.
In the case of `Cc1cc(Oc2ccccc2)ccc1N1C(=O)Nc2c(C(=O)N[C@@H]3CCCN(C(=O)/C(C#N)=C/C(C)(C)C)C3)sc3nccc1c23` (single isomer, unassigned) [Example 398, (R,E)-N-(1-(2-Cyano-4,4-dimethylpent-2-enoyl)piperidin-3-yl)-5-(*R)-(2-methyl-4-phenoxyphenyl)-4-oxo-4,5-dihydro-3H-1-thia-3,5,8-triazaacenaphthylene-2-carboxamide], the “BTK_I_binding pIC50” value is 6.6.
Regarding `Cc1cc(Oc2ccccc2)ccc1N1C(=O)Nc2c(C(=O)N[C@H]3CCNC(C)C3)sc3nccc1c23` (single isomer, unassigned) [Example 432, 5-(*S)-(2-Methyl-4-phenoxyphenyl)-N-((4*S)-2-methylpiperidin-4-yl)-4-oxo-4,5-dihydro-3H-1-thia-3,5,8-triazaacenaphthylene-2-carboxamide], the “BTK_I_binding pIC50” value was 7.0.
As to `Cc1cc(Oc2ccccc2)ccc1N1C(=O)Nc2c(C(=O)N[C@H]3CCNC(C)C3)sc3nccc1c23` (single isomer, unassigned) [Example 433, 5-(*R)-(2-Methyl-4-phenoxyphenyl)-N-((4*S)-2-methylpiperidin-4-yl)-4-oxo-4,5-dihydro-3H-1-thia-3,5,8-triazaacenaphthylene-2-carboxamide], the “BTK_I_binding pIC50” value amounted to 5.4.
With `Cc1cc(Oc2ccccc2)ccc1N1C(=O)Nc2c(C(=O)N[C@@H]3CCNC(C)C3)sc3nccc1c23` (single isomer, unassigned) [Example 434, 5-(*S)-(2-Methyl-4-phenoxyphenyl)-N-((4*R)-2-methylpiperidin-4-yl)-4-oxo-4,5-dihydro-3H-1-thia-3,5,8-triazaacenaphthylene-2-carboxamide], the “BTK_I_binding pIC50” value is 7.3.
For the compound `Cc1cc(Oc2ccccc2)ccc1N1C(=O)Nc2c(C(=O)N[C@@H]3CCNC(C)C3)sc3nccc1c23` (single isomer, unassigned) [Example 435, 5-(*R)-(2-Methyl-4-phenoxyphenyl)-N-((4*R)-2-methylpiperidin-4-yl)-4-oxo-4,5-dihydro-3H-1-thia-3,5,8-triazaacenaphthylene-2-carboxamide], the “BTK_I_binding pIC50” value was determined as 5.9.
Take `CC(C)=C(Cl)C(=O)N1CCC[C@@H](NC(=O)c2sc3nccc4c3c2NC(=O)N4c2ccc(Oc3ccccc3)cc2C)C1` (single isomer, unassigned) [Example 438, (R)—N-(1-(2-Chloro-3-methylbut-2-enoyl)piperidin-3-yl)-5-(*S)-(2-methyl-4-phenoxyphenyl)-4-oxo-4,5-dihydro-3H-1-thia-3,5,8-triazaacenaphthylene-2-carboxamide]: the “BTK_I_binding pIC50” value amounted to 6.7.
Under `CC(C)=C(Cl)C(=O)N1CCC[C@@H](NC(=O)c2sc3nccc4c3c2NC(=O)N4c2ccc(Oc3ccccc3)cc2C)C1` (single isomer, unassigned) [Example 439, (R)—N-(1-(2-Chloro-3-methylbut-2-enoyl)piperidin-3-yl)-5-(*R)-(2-methyl-4-phenoxyphenyl)-4-oxo-4,5-dihydro-3H-1-thia-3,5,8-triazaacenaphthylene-2-carboxamide] stands 5.7; under `C=CC(=O)N1CC[C@@H](N(C)C(=O)c2sc3nccc4c3c2NC(=O)N4c2ccc(Oc3ccccc3)cc2C)C1` (single isomer, unassigned) [Example 441, (R)—N-(1-Acryloylpyrrolidin-3-yl)-N-methyl-5-(*S)-(2-methyl-4-phenoxyphenyl)-4-oxo-4,5-dihydro-3H-1-thia-3,5,8-triazaacenaphthylene-2-carboxamide], 5.9; under `C=CC(=O)N1CC[C@@H](N(C)C(=O)c2sc3nccc4c3c2NC(=O)N4c2ccc(Oc3ccccc3)cc2C)C1` (single isomer, unassigned) [Example 442, (R)—N-(1-Acryloylpyrrolidin-3-yl)-N-methyl-5-(*R)-(2-methyl-4-phenoxyphenyl)-4-oxo-4,5-dihydro-3H-1-thia-3,5,8-triazaacenaphthylene-2-carboxamide], 6.9.
Turning to `COC(C)(C)/C=C(\C#N)C(=O)N1CCC[C@@H](NC(=O)c2sc3nccc4c3c2NC(=O)N4c2ccc(Oc3ccccc3)cc2C)C1` (single isomer, unassigned) [Example 450, (R,*E)-N-(1-(2-Cyano-4-methoxy-4-methylpent-2-enoyl)piperidin-3-yl)-5-(*S)-(2-methyl-4-phenoxyphenyl)-4-oxo-4,5-dihydro-3H-1-thia-3,5,8-triazaacenaphthylene-2-carboxamide], the “BTK_I_binding pIC50” value was 7.6.
Turning to `Cc1cc(Oc2ccccc2)ccc1N1C(=O)Nc2c(C(=O)N[C@@H]3CNC(=O)C3)sc3nccc1c23` (single isomer, unassigned) [Example 469, (*S)-5-(*S)-(2-Methyl-4-phenoxyphenyl)-4-oxo-N-(5-oxopyrrolidin-3-yl)-4,5-dihydro-3H-1-thia-3,5,8-triazaacenaphthylene-2-carboxamide], the “BTK_I_binding pIC50” value is 7.1.
In the case of `Cc1cc(Oc2ccccc2)ccc1N1C(=O)Nc2c(C(=O)N[C@@H]3CNC(=O)C3)sc3nccc1c23` (single isomer, unassigned) [Example 470, (*S)-5-(*R)-(2-Methyl-4-phenoxyphenyl)-4-oxo-N-(5-oxopyrrolidin-3-yl)-4,5-dihydro-3H-1-thia-3,5,8-triazaacenaphthylene-2-carboxamide], the “BTK_I_binding pIC50” value is on record as 5.6.
On to `Cc1cc(Oc2ccccc2)ccc1N1C(=O)Nc2c(C(=O)N[C@H]3CNC(=O)C3)sc3nccc1c23` (single isomer, unassigned) [Example 471, (*R)-5-(*S)-(2-Methyl-4-phenoxyphenyl)-4-oxo-N-(5-oxopyrrolidin-3-yl)-4,5-dihydro-3H-1-thia-3,5,8-triazaacenaphthylene-2-carboxamide], for which the “BTK_I_binding pIC50” value came out at 5.9.
Consider `Cc1cc(Oc2ccccc2)ccc1N1C(=O)Nc2c(C(=O)N[C@H]3CNC(=O)C3)sc3nccc1c23` (single isomer, unassigned) [Example 472, (*R)-5-(*R)-(2-Methyl-4-phenoxyphenyl)-4-oxo-N-(5-oxopyrrolidin-3-yl)-4,5-dihydro-3H-1-thia-3,5,8-triazaacenaphthylene-2-carboxamide], for which the “BTK_I_binding pIC50” value was determined as 7.4.
For `C/C=C/C(=O)N1CCC[C@@H](NC(=O)c2sc3nccc4c3c2NC(=O)N4c2ccc(Oc3ccccc3)cc2C)C1` (single isomer, unassigned) [Example 473, (R,*E)-N-(1-(But-2-enoyl)piperidin-3-yl)-5-(*S)-(2-methyl-4-phenoxyphenyl)-4-oxo-4,5-dihydro-3H-1-thia-3,5,8-triazaacenaphthylene-2-carboxamide], the “BTK_I_binding pIC50” value is given as 5.9.
Under `C/C=C/C(=O)N1CCC[C@@H](NC(=O)c2sc3nccc4c3c2NC(=O)N4c2ccc(Oc3ccccc3)cc2C)C1` (single isomer, unassigned) [Example 474, (R,*E)-N-(1-(But-2-enoyl)piperidin-3-yl)-5-(*R)-(2-methyl-4-phenoxyphenyl)-4-oxo-4,5-dihydro-3H-1-thia-3,5,8-triazaacenaphthylene-2-carboxamide] stands 7.6; under `C/C=C\C(=O)N1CCC[C@@H](NC(=O)c2sc3nccc4c3c2NC(=O)N4c2ccc(Oc3ccccc3)cc2C)C1` (single isomer, unassigned) [Example 475, (R,*Z)—N-(1-(But-2-enoyl)piperidin-3-yl)-5-(*R)-(2-methyl-4-phenoxyphenyl)-4-oxo-4,5-dihydro-3H-1-thia-3,5,8-triazaacenaphthylene-2-carboxamide], 6.1.
Under `C/C=C\C(=O)N1CCC[C@@H](NC(=O)c2sc3nccc4c3c2NC(=O)N4c2ccc(Oc3ccccc3)cc2C)C1` (single isomer, unassigned) [Example 476, (R,*Z)—N-(1-(But-2-enoyl)piperidin-3-yl)-5-(*S)-(2-methyl-4-phenoxyphenyl)-4-oxo-4,5-dihydro-3H-1-thia-3,5,8-triazaacenaphthylene-2-carboxamide] stands 7.4; under `Cc1cc(Oc2ccccc2)ccc1N1C(=O)Nc2c(C(=O)NC3COCCN(C#N)C3)sc3nccc1c23` (single isomer, unassigned) [Example 485, N-(4-Cyano-1,4-oxazepan-6-yl)-5-(*S)-(2-methyl-4-phenoxyphenyl)-4-oxo-4,5-dihydro-3H-1-thia-3,5,8-triazaacenaphthylene-2-carboxamide], 7.9; under `Cc1cc(Oc2ccccc2)ccc1N1C(=O)Nc2c(C(=O)N[C@@H]3CCCN(C(=O)/C=C/CN(C)C)C3)sc3nccc1c23` (single isomer, unassigned) [Example 488, (R,E)-N-(1-(4-(Dimethylamino)but-2-enoyl)piperidin-3-yl)-5-(*S)-(2-methyl-4-phenoxyphenyl)-4-oxo-4,5-dihydro-3H-1-thia-3,5,8-triazaacenaphthylene-2-carboxamide], 7.2.
Turning to `Cc1cc(Oc2ccccc2)ccc1N1C(=O)Nc2c(C(=O)N[C@@H]3CCN(C(=O)/C(C#N)=C/C4CC4)C3)sc3nccc1c23` (single isomer, unassigned) [Example 491, (R,E)-N-(1-(2-Cyano-3-cyclopropylacryloyl)pyrrolidin-3-yl)-5-(*S)-(2-methyl-4-phenoxyphenyl)-4-oxo-4,5-dihydro-3H-1-thia-3,5,8-triazaacenaphthylene-2-carboxamide], the “BTK_I_binding pIC50” value is listed as 7.6.
